Experimental data taken from US20260153494A1 (AGRICUL TURAL UNIVERSITY OF ATHENS, priority 2023, published 2026).

Tests used:
[1] = tested on: FGGsh101 (phi class glutathione S-transferase GSTF mutant sh101, derived by DNA shuffling, with N-terminal FGG tag, SEQ ID NO: 1); format: biochemical
Protocol: (§1) GST activity assays were carried by using the 1-chloro-2,4-dinitrobenzene (CDNB)/glutathione (GSH) substrate system as described previously (Axarli et al., 2017; Georgakis et al., 2020). Determination of enzyme activity was conducted using 1 mM CDNB and 2.5 mM GSH final concentration in 0.1 M KH2PO4, PH 6.5 and 37° C. Kinetic analysis of the potential supramolecular protein complexes was performed as previously described (Axarli et al., 2016, Georgakis et al., 2020) five days after addition of CB[8] to the enzyme solution in 1:1 stoichiometry. Protein precipitates were removed by centrifugation at 10,000 rpm for 10 min prior to the analysis. The steady state data were processed using GraphPad Prism version 7 (GraphPad Prism Software, Inc.). Turnover numbers were evaluated for one active site per subunit of enzyme. Specific activity (SA) was estimated in micromoles per minute per milligram of protein (μmol min-1 mg-1). Determination of protein concentration was carried using the Bradford assay with bovine serum albumin as standard (Bradford, 1976).
(§2) The kinetic parameters of FGGsh101 and FGGsh155 were analyzed both in absence of CB[8] and five days after the addition of the macrocyclic host in 1:1 ratio. […] (see Example 3)

[2] = tested on: FGGsh155:CB[8] hexamer (FGG-tagged phi class glutathione S-transferase GSTF mutant sh155, SEQ ID NO: 2, with cucurbit[8]uril 1:1); format: biochemical
Protocol: as §1, §2

[3] = tested on: FGGsh101:CB[8] (FGG-tagged phi class glutathione S-transferase GSTF mutant sh101, SEQ ID NO: 1, with cucurbit[8]uril 1:1); format: biochemical
Protocol: as §1, §2

[4] = tested on: FGGsh155 (phi class glutathione S-transferase GSTF mutant sh155, derived by DNA shuffling, with N-terminal FGG tag, SEQ ID NO: 2); format: biochemical
Protocol: as §1, §2

[5] = tested on: Immobilized FGGsh155:CB[8] hexamer (GSTF mutant sh155, FGG-tagged, SEQ ID NO: 2, with cucurbit[8]uril 1:1, on glutaraldehyde-crosslinked chitosan); format: biochemical
Protocol: Initially, 2%, 3% and 4% (w/v) medium molecular weight chitosan (molecular weight of 190 to 310 kDa) was dissolved by continuous stirring in 2% (v/v) acetic acid. The formed chitosan gels were stored at 4° C. until the following day (12 to 24 hours) in order to remove any trapped air. For the immobilisation, 180 mg of chitosan gel were deposited by a syringe at the bottom of a cuvette with 4 mL capacity. Then 50 μL of different concentrations of GA solution [0.4%, 0.5%, 0.6%, 0.7%, and 1% (v/v)] were added and the mixture was lightly stirred with a pipette tip. The carrier mixture was left for an hour so that the reaction of GA binding to the amino groups of the carrier was accomplished. GA was diluted in 20 mM KH2PO4, PH 7.0. Afterwards, the carrier was washed thrice with 2 mL 20 mM KH2PO4, PH 7, in order to remove any unbound GA molecules. The immobilization of FGGsh155:CB[8] was performed five days after the addition of the CB[8] macrocyclic agent at stoichiometry of 1:1, for uniformity of the experiments. Thus, 600 μL of the enzyme solution with 0.7-0.8 mg/mL concentration were added to the activated chitosan medium. The enzyme was incubated with the carrier at 25° C. overnight with stirring at 50-80 rpm. The following day, the volume of the enzyme solution that wasn't absorbed by the carrier was removed and the carrier was incubated with 600 μL of 2 mg/mL NaBH4 solution for 30 min. This step was conducted in order to stabilize the Schiff's bases that form due to the reaction of GA with the enzyme amino groups (Barbosa et al., 2014). Finally, three washes were performed with 20 mM KH2PO4, PH 7, for the removal of any unbound enzyme. Protein binding efficiency to the carrier (%) and retention of enzyme activity (%) were defined as: […]
Determination of the enzyme activity for the immobilised enzyme complex FGGsh155:CB[8] was performed using the CDNB/GSH substrate system with 20 mM KH2PO4, PH 7, as a reaction solution at 37° C., as has been previously described (Georgakis et al., 2020a; Axarli et al., 2017; Cho et al., 2005). The rate assay was recorded for 300 s at 340 nm.
Kinetic analysis for GSH was performed using standard CDNB concentration (1 mM) and varying GSH concentrations. Correspondingly, standard concentration of GSH substrate (2.5 mM) and varying concentrations of CDNB were utilised in the kinetic analysis for CDNB.
The kinetic parameters of the immobilized FGGsh155:CB[8] were calculated using the CDNB/GSH substrate system in 20 mM KH2PO4, PH 7.0, at 37° C. (FIG. 20) depicts the dependence of the enzyme's reaction rate on the substrate concentration. […] Respectively the kinetic analysis for GSH was carried with standard CDNB concentration (1 mM) and different GSH concentrations. […] The reduction in kcat is usually expected after immobilization (Neira & Herr, 2017).

[6] = Thermal stability (Tm) by differential scanning fluorimetry; format: physicochemical; settings: for second distinct melting point Tm2 / increase in Tm1: after addition of CB[8]; for increase in Tm1: versus Tm0, especially 1:1 stoichiometry
Protocol: The thermostability of FGG-GSTFs, FGGsh101 and FGGsh155 was assessed by differential scanning fluorimetry (DSF) in the presence of the macrocyclic compound CB[8]. CB[8] was added in stoichiometry of 1:1 and 2:1 enzyme to host concentration. The reaction was performed in 50 mM KH2PO4 solution, pH 7.14, using either 15 μM enzyme and 15 μM CB[8] (1:1) or 15 μM enzyme and 7.5 μM CB[8] (2:1). A “control” reaction for each ratio was also measured, where only CB[8]'s solvent of was added to the enzyme. Differential scanning fluorimetry was performed in 20 mM KH2PO4 buffer, pH 7, with 4 μg of protein sample, according to published methods (Huynh & Partch, 2015). Thermal shift assays we carried using a Real-time PCR StepOne™ instrument (Applied Biosystems, USA) and the SYPRO Orange protein dye at a temperature range between 15° C. and 99° C. with a ramping rate of 1%. Temperature of protein denaturation midpoint (Tm) was estimated by the first derivative of the normalized fluorescence data.

[7] = Steady-state kinetic analysis of FGG-GSTFs, CDNB/GSH substrate system; format: biochemical; settings: for catalytic constant: enzyme samples with CB[8] in 1:1 stoichiometry; for kcat: free enzyme
Protocol: as §1
The kinetic parameters of FGGsh101 and FGGsh155 were analyzed both in absence of CB[8] and five days after the addition of the macrocyclic host in 1:1 ratio. This was determined according to the fluorescence intensity monitoring experiments, where the reduction of fluorescence emission appeared to reach a plateau after 4-5 days. (see Example 3)

[8] = Enzyme stability upon storage at 4° C. (retention of activity); format: physicochemical; settings: first twenty days
Protocol: Enzymatic stability was determined as the retention of enzyme activity overtime upon storage at 4° C. for the FGGsh155:CB[8] before and after immobilization, as well as the unmodified form of FGGsh155. Monitoring of the enzyme inactivation was determined using the CDNB/GSH substrate system.

[9] = CDNB/GSH substrate system, pH 6.5, 37° C., one active site per subunit

For N[C@@H](CCC(=O)N[C@@H](CS)C(=O)NCC(=O)O)C(=O)O [GSH, glutathione], the “kcat/Km GSH” value ([1]; pH 6.5) was 1978 M⁻¹ s⁻¹, the Km ([1]; pH 6.5, read-out: Km GSH) was 1360 ± 20 µM and the “kcat/Km GSH” value ([2]; pH 6.5) was 1410 M⁻¹ s⁻¹. The Km ([2]; pH 6.5, read-out: Km GSH) was 1430 ± 30 µM, the “kcat/Km GSH” value ([3]; pH 6.5) was 1594 M⁻¹ s⁻¹ and the Km ([3]; pH 6.5, read-out: Km GSH) was 1410 ± 50 µM. For the same molecule, the “kcat/Km GSH” value ([4]; pH 6.5) was 1896.3 M⁻¹ s⁻¹, the Km ([4]; pH 6.5, read-out: Km GSH) was 1480 ± 30 µM and the “kcat/Km GSH” value ([5]; 20 mM KH2PO4, pH 7.0, 37° C.) was 16.8 M⁻¹ s⁻¹. For the same molecule, the Km ([5]; CDNB 1 mM, 20 mM KH2PO4, pH 7.0, 37° C., read-out: Km GSH) was 1260 ± 80 µM.

With O=[N+]([O-])c1ccc(Cl)c([N+](=O)[O-])c1 [CDNB, 1-chloro-2,4-dinitrobenzene] the “nH (Hill coefficient)” value ([1]; CDNB variable, pH 6.5, 37° C.) was 1.17 ± 0.03, the kcat [1, 9] was 2.657 ± 0.0202 s⁻¹ and the “kcat/S0.5 CDNB” value ([1]; pH 6.5, 37° C.) was 6625.2 M⁻¹ s⁻¹. For the same molecule, the “nH (Hill coefficient)” value ([2]; free enzyme, CDNB variable, five days after CB[8] addition 1:1, pH 6.5, 37° C.) was 1.01 ± 0.02, the kcat ([2]; free enzyme, CDNB/GSH substrate system, five days after CB[8] addition 1:1, pH 6.5, 37° C.) was 2.02 ± 0.019 s⁻¹ and the “S0.5 CDNB” value ([2]; free enzyme, GSH at fixed concentration, five days after CB[8] addition 1:1, pH 6.5, 37° C.) was 0.81 ± 0.05 mM. The “kcat/S0.5 CDNB” value ([2]; free enzyme, five days after CB[8] addition 1:1, pH 6.5, 37° C.) was 2489.7 M⁻¹ s⁻¹, the “nH (Hill coefficient)” value ([3]; CDNB variable, five days after CB[8] addition 1:1, pH 6.5, 37° C.) was 1.1 ± 0.06 and the kcat ([3]; CDNB/GSH substrate system, five days after CB[8] addition 1:1, pH 6.5, 37° C.) was 2.248 ± 0.0547 s⁻¹. For the same molecule, the “kcat/S0.5 CDNB” value ([3]; five days after CB[8] addition 1:1, pH 6.5, 37° C.) was 4014.8 M⁻¹ s⁻¹, the “nH (Hill coefficient)” value ([4]; CDNB variable, pH 6.5, 37° C.) was 1.01 ± 0.03 and the kcat [4, 9] was 2.807 ± 0.0453 s⁻¹. The “kcat/S0.5 CDNB” value ([4]; pH 6.5, 37° C.) was 3645 M⁻¹ s⁻¹, the “kcat/S0.5 CDNB” value ([5]; 20 mM KH2PO4, pH 7.0, 37° C.) was 19 M⁻¹ s⁻¹ and the “nH (Hill coefficient)” value ([5]; CDNB variable, GSH 2.5 mM, pH 7.0, 37° C.) was 1.47 ± 0.12. It also gave a kcat ([5]; CDNB/GSH substrate system, 20 mM KH2PO4, pH 7.0, 37° C.) of 0.0213 ± 0.002 s⁻¹.

B1: sh101: phi class cytosolic glutathione S-transferase mutant from DNA shuffling, without FGG tag (protein)
chain: MFGGAPVKVFGPAMSTNVARVTLCLEEVGAEYEVVNIDFNTMEHKSPEHLARNPFGQIPAFQDGDLLLWESRAISKYVLRKYKTDEVDLLREGNLKEAAMVDVWTEYDAHTYNPALSPIVYECLINPLMRGLPTNQTVVDESLEKLKKVLEVYEARLSQHKYLAGDFVSFADLNHFPYTFYFMATPHAALFDSYPHVKAWWDRLMARPAVKKIAATMVPPKA
In the case of B1, the “effect of CB[8] addition on Tm of enzyme forms that weren't FGG-tagged” value ([6]; 1:1 and 2:1, almost ten days) is reported as “did not induce the appearance of an additional Tm value”.

B2: FGGsh101: phi class GST mutant sh101 (SEQ ID NO: 1) with N-terminal phenylalanine-glycine-glycine tag; dimer (protein)
chain: MFGGAPVKVFGPAMSTNVARVTLCLEEVGAEYEVVNIDFNTMEHKSPEHLARNPFGQIPAFQDGDLLLWESRAISKYVLRKYKTDEVDLLREGNLKEAAMVDVWTEYDAHTYNPALSPIVYECLINPLMRGLPTNQTVVDESLEKLKKVLEVYEARLSQHKYLAGDFVSFADLNHFPYTFYFMATPHAALFDSYPHVKAWWDRLMARPAVKKIAATMVPPKA
modifications: N-terminal FGG tag; dimer
With B2 the “second distinct melting point Tm2” value [6] was “≈ 85 °C”, the “increase in Tm1” value [6] was 1.5-2 °C and the catalytic constant [7] was 134.9 ± 3.28 min⁻¹. For the same molecule, the “kcat” value [7] was 2.657 ± 0.0202 s⁻¹.

B3: FGGsh155: phi class GST mutant sh155 (SEQ ID NO: 2) with N-terminal phenylalanine-glycine-glycine tag; dimer (protein)
chain: MFGGAPVKVFGPAMSTNVARVTLCLEEVGAEYEVVDIDFKAMEHKSPEHLVRNPFGQIPAFQDGDLLLFESRAIAKYVLRKYKTDEVDLLREGNLKEAAMVDVWTEYDAHTYNPALSPIVYECLINPLMRGLPTNQTVVDESLEKLKKVLEVYEARLSQHKYLAGDFVSFADLNHFPYTFYFMATPHAALFDSYPHVKAWWDRLMARPAVKKIAATMVPPKA
modifications: N-terminal FGG tag; dimer
In the case of B3, the retained activity [8] is reported as “approximately 50%”, the “second distinct melting point Tm2” value [6] is reported as “≈ 85 °C” and the “increase in Tm1” value [6] is reported as “up to 3.5 °C”. The catalytic constant [7] was 121 ± 1.14 min⁻¹ and the “kcat” value [7] was 2.807 ± 0.0453 s⁻¹.
